Assay results taken from patent publication US20210338647A1, “Combination of Acetylcholinesterase Inhibitor and 5-HT4 Receptor Agonist As Neuroprotective Agent In the Treatment of Neurodegenerative Diseases” (UNIVERSITE DE CAEN NORMANDIE, priority 2018, published 2021).
Marks after values point to notes of the source that are not given here.

Assays:
phospho Tau (AT100) = assay: Phosphorylation of Tau (AT100) in MAP-2 neurons injured with Aβ 1-42; assay type: cell-based, rat; settings: for AT100: Aβ1-42 20 μM/2.5 μM, percentage of control, Example 3
Method: (§1) Rat hippocampal neurons were cultured as described by Callizot et al. (2013) J. Neurosci. Res. 91706-716. Pregnant female rats of 17 days gestation (Rats Wistar; Janvier Labs France) were killed using a deep anesthesia with CO2 chamber followed by a cervical dislocation. Then, fetuses were removed from the uterus and immediately placed in ice-cold L15 Leibovitz medium with a 2% penicillin (10,000 U/ml) and streptomycin (10 mg/ml) solution (PS) and 1% bovine serum albumin (BSA). Hippocampal neurons were treated for 20 min at 37° C. with a trypsin-EDTA solution at a final concentration of 0.05% trypsin and 0.02% EDTA. The dissociation was stopped by adding Dulbecco's modified Eagle's medium (DMEM) with 4.5 g/l of glucose, containing DNAse I grade 11 (final concentration 0.5 mg/ml) and 10% fetal calf serum (FCS). Cells were mechanically dissociated by three forced passages through the tip of a 10-ml pipette and then centrifuged at 515×g for 10 min at 4° C. The supernatant was discarded, and the pellet was resuspended in a defined culture medium consisting of Neurobasal medium with a 2% solution of B27 supplement, 2 mmol/l of L-glutamine, 2% of PS solution, and 10 ng/ml of brain-derived neurotrophic factor (BDNF). Viable cells were counted in a Neubauer cytometer, using the trypan blue exclusion test. […] The medium was changed every 2 days.
(§2) The hippocampal neurons were exposed with Aβ solutions (see below) after 17 days of culture. The Aβ1-42 preparation was done following the procedure described by Callizot et al. (2013) J. Neurosci. Res. 91706-716. Briefly, Aβ1-42 peptide was dissolved in the defined culture medium mentioned above, at an initial concentration of 40 μM. This solution was gently agitated for 3 days at 37° C. in the dark and immediately used after being properly diluted in culture medium to the concentrations used (20 μM (plate 1) or 2.5 μM (plate 2) corresponding to 2 μM or 0.25 μM of oligomers (AβO) respectively).
(§3) Donecopride fumarate was solved in culture medium and preincubated 1 h before Aβ application. Aβ1-42 preparation was added to a final concentration of 20 or 2.5 μM (=2 μM or 0.25 μM of AβO, evaluated by automatic Western Blot) diluted in control medium in presence of Donecopride.
(§4) Donecopride fumarate (Donecopride) was tested on one culture in a 96 well plate (6 wells per conditions). The compound was preincubated one hour before […] application. The following conditions were assessed:
(§5) After permeabilization with 0.1% of saponin, cells were incubated for 2 h with:
b) mouse monoclonal antibody anti-phospho Tau (AT100) at dilution of 1/400 in PBS containing 1% fetal calf serum and 0.1% of saponin.
(§6) For each condition, 30 pictures (representative of the whole well area) per well were taken using ImageXpress (Molecular Devices) at 20× magnification. All images were taken with the same acquisition parameters. Analyses were performed automatically by using Custom Module Editor (Molecular Devices).
area of tau in neurons (μm^2, overlapping with MAP-2 positive neurons).
(§7) Rat hippocampal neurons were cultured as described by Callizot et al. (2013) J. Neurosci. Res. 91:706-716. Briefly, pregnant female rats of 17 days gestation (Rats Wistar; Janvier Labs France) were killed using a deep anesthesia with CO2 chamber and a cervical dislocation. Then, fetuses were removed from the uterus and immediately placed in ice-cold L15 Leibovitz medium with a 2% penicillin (10,000 U/ml) and streptomycin (10 mg/ml) solution (PS) and 1% bovine serum albumin (BSA). The hippocampi were treated for 20 min at 37° C. with a trypsin-EDTA solution at a final concentration of 0.05% trypsin and 0.02% EDTA. The dissociation was stopped by addition of Dulbecco's modified Eagle's medium (DMEM) with 4.5 g/l of glucose, containing DNAse I grade II (final concentration 0.5 mg/ml) and 10% fetal calf serum (FCS). Cells were mechanically dissociated by three forced passages through the tip of a 10-ml pipette.

[1] = system: rat primary hippocampal neurons injured with Aβ 1-42; assay: Neurite network of MAP-2 neurons in primary culture of hippocampal neurons injured with Aβ 1-42; assay type: cell-based; settings: for Neurite network / Neurite/neuron: Aβ1-42 20 μM/2.5 μM, percentage of control, Example 3
Method: as §1, §2, §3, §4, §5
a) chicken polyclonal antibody anti microtubule-associated-protein 2 (MAP-2), diluted at 1/1000 in PBS containing 1% fetal calf serum and 0.1% of saponin (this antibody allows the specific staining of neuronal cell bodies and neurites; and allow the study of neuronal cell death and neurite network).
as §6
Neurite network (in μm of MAP-2 positive neurons)
The neurite network is proportional to the number of neurons in the culture. The total neurite network was normalized by the number of neurons, in order to determine the average length of neurite per neurons.
as §7, with “The dissociation was stopped by addition of Dulbecco's modified Eagle's medium (DMEM) with 4.5 g/l of glucose, containing DNAse I grade II (final concentration 0.5 mg/ml) and 10% fetal calf serum (FCS). Cells were mechanically dissociated by three forced passages through the tip of a 10-ml pipette.” left out

[2] = Aβ 1-42 injured hippocampal neurons, Example 3 step 1

COc1cc2c(cc1OC)C(=O)C(CC1CCN(Cc3ccccc3)CC1)C2 (stereo not shown) [Donepezil]
AT100 (phospho Tau (AT100); donepezil 100 pM): 181%
AT100 (phospho Tau (AT100); donepezil 1 nM): 165%*
AT100 (phospho Tau (AT100); donepezil 1 nM, listed as donepezil): 165%
AT100 (phospho Tau (AT100); donepezil 10 nM): 146%*
AT100 (phospho Tau (AT100); donepezil 50 nM): 139%*
AT100 (phospho Tau (AT100); donepezil 100 nM): 140%*
AT100 (phospho Tau (AT100); donepezil 500 nM): 142%*
AT100 (phospho Tau (AT100); donepezil 1 μM): 141%*
AT100 (phospho Tau (AT100); donepezil 10 μM): 143%*
Neurite network ([1]; donepezil 100 pM): 68%
Neurite/neuron ([1]; donepezil 100 pM): 99%
Neurite network ([1]; donepezil 1 nM): 75%*
Neurite/neuron ([1]; donepezil 1 nM): 99%
Neurite network ([1]; donepezil 10 nM): 79%*
Neurite/neuron ([1]; donepezil 10 nM): 91%
Neurite network ([1]; donepezil 50 nM): 85%*
Neurite/neuron ([1]; donepezil 50 nM): 94%
Neurite network ([1]; donepezil 100 nM): 85%*
Neurite/neuron ([1]; donepezil 100 nM): 94%
Neurite network ([1]; donepezil 500 nM): 87%*
Neurite/neuron ([1]; donepezil 500 nM): 101%
Neurite network ([1]; donepezil 1 μM): 90%*
Neurite/neuron ([1]; donepezil 1 μM): 105%*
Neurite network ([1]; donepezil 10 μM): 88%*
Neurite/neuron ([1]; donepezil 10 μM): 103%*

CCCCN1CCC(CCC(=O)c2cc(Cl)c(N)cc2OC)CC1 [RS67333, 1-(4-amino-5-chloro-2-methoxy-phenyl)-3-(1-butyl-4-piperidinyl)-1-propanone]
Lowest protective active dose: hyperphosphorylation of Tau (phospho Tau (AT100); [2]): 1 nM
Lowest protective active dose: neurite network [1, 2]: 10 nM
Average length of neurites per neurons (FIG. 1C) ([1]; RS67333 alone, Aβ 1-42 injured hippocampal neurons, Example 3 step 1): protective effects
